{"source": "patent US5358936A", "about": "“Anionic furanose derivatives, methods of making and using the same” (Gordon; Paul, priority 1991, dated 1994)", "key": {"rat stomachs [1]": {"test_system": "rat stomachs", "assay": "Gastric pathology following inflammatory stress and indomethacin, fed rats (Example 20)", "type": "in vivo, male Sprague Dawley rats", "set-up": "scale not given here", "conditions": "stress + indomethacin 30 mg/kg oral; Compound III 50 mg/kg subcutaneously where given; 24 hours", "procedure": "(§1) Stress was induced by the following procedure. On day one, under ether anesthesia, 18 male Sprague Dawley rats were injected with a suspension of Zymosan A (1 mg/ml in normal saline; Sigma Chemical Co.) in each hind paw. Swelling developed and persisted. This treatment generated activated blood complement locally (including the C5a moiety), which then spread by the bloodstream throughout the animal.\n(§2) Twenty-four hours later all rat paws were reinjected, this time with 0.1 ml of proinflammatory zymosan-activated rat serum containing additional amounts of inflammatory complement fragment C5a (as in Example 23, hereinafter). Five hours later 30 mg/kg indomethacin in an aqueous suspension was given to nine such rats by oral garage. These rats also received a subcutaneous injection of 0.1 ml normal saline. Nine other such rats were given indomethacin as above, and Compound III (50 mg/kg in normal saline subcutaneously). Four additional rats, not stressed (normal) were given water by garage as a placebo and saline subcutaneously. All rats were fed ad libitum on standard diet.\nTwenty-four hours later all animals were sacrificed by ether euthanasia. Their stomachs were washed with saline and evaluated for ulcer-related pathology using an illuminated magnifying glass. This assay is similar to that reported by Kinney et al., J. Med. Chem., 33:327 (1990)."}, "rat stomachs [2]": {"test_system": "rat stomachs", "assay": "Gastric pathology following inflammatory stress and indomethacin, food-deprived rats (Example 21)", "type": "in vivo", "procedure": "as §1, §2\nIn contrast to the study of Example 20, above, in this study animals were food deprived for 24 hours before and also during the 24 hours following drug treatments. All animals were subjected to the inflammatory stress as described in Example 20. Eight such rats received 30 mg/kg indomethacin, and eight rats received indomethacin and Compound III (subcut., 50 mg/kg). Four rats, not stressed, were given placebo by garage.\nAll animals were sacrificed by ether euthanasia 24 hours later, and their stomachs evaluated for ulcer-related pathology.\nIn the stressed animals given indomethacin alone, pathology was much more severe than in Example 20. For scoring, therefore, the frequency of ulcers per rat stomach was quantified, and whether they were or were not bleeding."}, "[3]": {"test_system": "myeloperoxidase (MPO); neutrophil infiltration", "assay": "Myeloperoxidase (MPO) accumulation in ZAS-swollen footpads (Example 23)", "type": "in vivo, rat", "conditions": "ZAS alone 94.42 ± 12.81, normal 11.67 ± 1.87, P < 0.01", "procedure": "The relationship of neutrophil infiltration to ZAS-induced swelling, and its drug-inhibition, was evaluated in another study. In this study, all procedures employing ZAS and Compound III were carried out as above, except that, Compound III was administered 45 minutes before ZAS, and standardized samples of the swollen footpads were removed and subjected to analysis for myeloperoxidase activity (MPO), according to the method of Lundberg et al., Inflammation, 7:247, (1983). MPO is a neutrophil-specificenzyme, and its assay is the most widely used method of identifying the degree of neutrophil participation in organ pathology."}, "[4]": {"assay": "Acute toxicity in the mouse (Example 29 A)", "conditions": "in vivo", "source_text": "Acute intraperitoneal and oral toxicity of Compound III was studied in the mouse. Ten animals per dose were employed."}, "mouse paw": {"test_system": "mouse paw", "assay": "Mouse paw edema provoked by clostridial collagenase (Example 32)", "type": "in vivo", "conditions": "for maximal drug inhibition of edema: lower enzyme level (0.05 μg/ml), 100 mg/kg divided IV and IP", "procedure": "Further, mouse paw edema was provoked by two levels of clostridial collagenase enzyme, in the supramaximal range (0.05 μg/ml and 0.15 μg/ml), and treated with one level of drug (Compound III; 100 mg/kg divided equally and administered IV and IP at zero time). The maximal drug inhibition observed was 81 percent at one hour and 87 percent at two hours, for the lower level of enzyme."}, "gastric mucosal ulcers": {"test_system": "gastric mucosal ulcers", "assay": "Healing of established gastric ulcers induced by acetic acid (Example 34)", "type": "in vivo, rat", "conditions": "rat, in vivo; tripotassium salt", "source_text": "To evaluate drug effects on peptic ulcer healing, gastric mucosal ulcers were produced in rats, after a two day fast, by a modification of the method of Konturek et al., Am. J. Med., Vol. 86, 6A, 32 (1989). Briefly, to produce a mucosal ulcer, Konturek et al. applied 100 percent acetic acid for twenty seconds to the stomach serosa through a small cylindrical mold, 4.2 mm in diameter. The aim here was to make ulceration more severe than was achieved by the Konturek group so that spontaneous healing would not be as pronounced as they found in the controls, over an experimental period of seven days.\nAll drugs studied were suspended in 0.25 percent (by weight) aqueous methylcellulose solution as the vehicle or diluent, which also served as the placebo given to the controls. Treatments were given once daily by oral gavage, in one milliliter of vehicle. The treatment groups were: Control; Sucralfate at 200 mg/kg; and Compound III:Al at 200 mg/kg.\nAt the end of the treatment period, stomachs were removed, ulcer diameters were measured, and determination was made of the presence or absence of perforation.\nA second study was carried out in which ulcer evolution was permitted to take place over five additional days, in the absence and presence of treatment with Sucralfate.\nA third study was begun one day following the start of study 2, in which ulcer evolution was allowed to take place over five additional days, in the absence and presence of treatment with Compound III:Al.\nIn another study, after ulcer induction as above, a different dosage protocol was employed at 24 hours to evaluate the interaction of Compound III and orally administered sucralfate on ulcer healing. […] Here, daily drug doses of the following were used: (a) sucralfate at 200 mg/kg, alone and (b) in combination with 80 mg/kg Compound III given by mouth at -45 minutes, and, in a third group, (c) in combination with 10 mg/kg Compound III given IV also at -45 minutes. In this interaction study, drug treatment was continued for three and not five days, as was the case for the above studies, followed by passage of two additional non-treatment days before sacrifice of animals for evaluation of stomach ulcer area and perforation.\nData from all ulcer-healing studies employing a drug dosage of 200 mg/kg and the same ulcerogenesis protocol were pooled as to the frequency of gastric perforation observed on day five, not shown separately, with the day six perforation data shown above."}, "mouse blood coagulation": {"test_system": "mouse blood coagulation", "assay": "Blood coagulation, in vitro clotting time (Example 31 A)", "conditions": "10 μg/ml in normal saline", "quoted_text": "To assess the effect on coagulation, if any, of a compound of the invention, a comparative evaluation was made using mouse blood.\nOne ml of freshly drawn mouse blood was added to each tube, and the tube contents were mixed. The clotting time was then noted for each tube, and the results are as shown below:"}}, "note": "Where “and” joins values, the source holds several entries; their conditions need not be identical. Equal entries are not always repeated. Entries after “also recorded” stand apart in the source; their conditions may differ. Structures can show the parent of a compound that is named as a salt."}
{"smiles": "CC1(C)O[C@H]2O[C@H]([C@@H](COS(=O)(=O)O)OS(=O)(=O)O)[C@H](OS(=O)(=O)O)[C@H]2O1", "note": "[Compound III, 1,2-O-(2-Propylidene)-3,5,6-tri-O-sulfo-α-D-glucofuranose, tripotassium salt]", "values": [{"measurement": "Mean Pathology score", "setting": "rat stomachs [1]", "value": 0.00}, {"measurement": "Pathology score, individual rat", "setting": "rat stomachs [1]", "value": 0.0}, {"measurement": "bleeding ulcers in group", "setting": "rat stomachs [2]; eight rats", "value": "None were bleeding"}, {"measurement": "Bleeding Ulcer Frequency, Mn ± SE", "setting": "rat stomachs [2]; indomethacin 30 mg/kg, Compound III 50 mg/kg subcut. where given, 24 hours, P<0.001 vs indomethacin alone", "value": 0.00, "unit": "Per Rat"}, {"measurement": "Total Ulcer Frequency, n ± SE", "setting": "rat stomachs [2]; indomethacin 30 mg/kg, Compound III 50 mg/kg subcut. where given, 24 hours, P<0.01 vs indomethacin alone", "value": "0.63 ± 0.42", "unit": "Per Rat"}, {"measurement": "ulcers per affected rat", "setting": "rat stomachs [2]; indomethacin: all eight rats, indomethacin + Compound III: only two rats", "value": "two and three"}, {"measurement": "MPO", "setting": "[3]; 17 mg/kg, n = 6", "value": "32.17 ± 2.83", "unit": "Rel. Units"}, {"measurement": "MPO", "setting": "[3]; 50 mg/kg, n = 12", "value": "41.67 ± 8.93", "unit": "Rel. Units"}, {"measurement": "LD50", "setting": "[4]; ip, read-out: LD50, intraperitoneal", "value": 2800, "unit": "mg/kg"}, {"measurement": "NOAEL", "setting": "[4]; iv", "value": 3000, "unit": "mg/kg"}, {"measurement": "oral dose producing death", "setting": "[4]; po", "value": "> 4500", "unit": "mg/kg"}, {"measurement": "maximal drug inhibition of edema", "setting": "mouse paw; one hour", "value": 81, "unit": "%"}, {"measurement": "drug inhibition at higher enzyme level, in words", "setting": "mouse paw; two hours, 0.15 μg/ml enzyme, 100 mg/kg", "value": "not significant"}, {"measurement": "maximal drug inhibition of edema", "setting": "mouse paw; two hours", "value": 87, "unit": "%"}, {"measurement": "effect on established ulcers, in words", "setting": "gastric mucosal ulcers", "value": "used alone did not enhance the healing process; also recorded: able to prevent the perforation of established ulcers"}, {"measurement": "Clotting time, individual mouse", "setting": "mouse blood coagulation; control 2.0-6.0, tripotassium salt", "value": "2.0 min and 1.0 min and 4.0 min"}, {"measurement": "Average clotting time", "setting": "mouse blood coagulation; control 4.33 ± 1.20, P<0.001", "value": "2.0 ± 0.71", "unit": "min"}]}
